Measured values taken from ChEMBL document CHEMBL2380261, “Analogs design, synthesis and biological evaluation of peptidomimetics with potential anti-HCV activity” (Bioorg Med Chem, 2013).

Assays:
Hepatitis C virus = test: microbe, parasite or virus in culture; format: functional, organism-based, Hepacivirus hominis; details: genotype 2a J6/JFH, Huh-7, 48 h
Description: Antiviral activity against Hepatitis C virus subtype 2a J6/JFH transfected in human Huh7.5 cells assessed as inhibition of viral replication after 48 hrs by luciferase reporter gene assay

[1] = Cytotoxicity against human Huh7.5 cells assessed as cell viability after 48 hrs by Alamar blue assay
[2] = Safety index, ratio of CC50 for human Huh7.5 cells to EC50 for Hepatitis C virus subtype 2a J6/JFH
[3] = Inhibition of HCV NS3 protease (1027 to 1206) after 30 mins in presence of Pep4AK; set-up: species or system Hepacivirus hominis

CCOS(=O)(=O)/C=C/[C@H](Cc1ccccc1)NC(C)=O
EC50 (Hepatitis C virus): 2.11 µM
CC50 at 48 h [1]: 7.91 µM
selectivity ratio [2]: 3.75

CCOS(=O)(=O)/C=C/[C@H](Cc1ccccc1)NC(=O)CCC(=O)/C=C/c1ccccc1
EC50 (Hepatitis C virus): 0.296 µM
CC50 at 48 h [1]: 1 µM

CC(C)[C@H](NC(=O)CCC(=O)/C=C/c1ccccc1)C(=O)O
EC50 (Hepatitis C virus): 22.5 µM
CC50 at 48 h [1]: > 100 µM
selectivity ratio [2]: > 4.45

CC(C)C[C@H](NC(=O)[C@]1(Cc2ccsc2C(=O)O)Cc2ccccc2N1)C(=O)N[C@@H](CC(F)F)C(=O)C(=O)O
IC50 [3]: 0.7 µM

COC(=O)[C@H](C)NC(=O)CCC(=O)/C=C/c1ccc2c(c1)OCO2
EC50 (Hepatitis C virus): 0.347 µM
CC50 at 48 h [1]: 1.11 µM
selectivity ratio [2]: 3.19

CCOS(=O)(=O)/C=C/[C@H](Cc1ccccc1)NC(=O)OC(C)(C)C
EC50 (Hepatitis C virus): 1.21 µM
CC50 at 48 h [1]: 3.5 µM
selectivity ratio [2]: 2.88

COC(=O)[C@@H](NC(=O)CCC(=O)/C=C/c1ccccc1)C(C)C
EC50 (Hepatitis C virus): 0.381 µM
CC50 at 48 h [1]: 1.48 µM
selectivity ratio [2]: 3.88

COC(=O)[C@@H](NC(=O)CCC(=O)/C=C/c1cccnc1)C(C)C
EC50 (Hepatitis C virus): 1.14 µM
CC50 at 48 h [1]: 1.57 µM
selectivity ratio [2]: 1.38

CCOS(=O)(=O)/C=C/[C@@H](NC(C)=O)[C@@H](C)O
EC50 (Hepatitis C virus): 4.36 µM
CC50 at 48 h [1]: 27.7 µM
selectivity ratio [2]: 6.36

CC(C)(C)NC(=O)N[C@H](C(=O)N1C[C@H]2[C@@H]([C@H]1C(=O)NC(CC1CCC1)C(=O)C(N)=O)C2(C)C)C(C)(C)C (stereo partly drawn) [BOCEPREVIR]
EC50 (Hepatitis C virus): 0.8 µM
CC50 at 48 h [1]: > 100 µM

C[C@H](NC(=O)CCC(=O)/C=C/c1ccc2c(c1)OCO2)C(=O)O
EC50 (Hepatitis C virus): 5.44 µM
CC50 at 48 h [1]: 12.1 µM
selectivity ratio [2]: 2.22

COC(=O)[C@@H](NC(=O)CCC(=O)/C=C/c1ccc2c(c1)OCO2)C(C)C
EC50 (Hepatitis C virus): 0.682 µM
CC50 at 48 h [1]: 1.39 µM
selectivity ratio [2]: 2.83

COC(=O)[C@H](C)NC(=O)CCC(=O)/C=C/c1cccnc1
EC50 (Hepatitis C virus): 0.9 µM
CC50 at 48 h [1]: 2.11 µM
selectivity ratio [2]: 2.34

COC(=O)[C@H](C)NC(=O)CCC(=O)/C=C/c1ccccc1
EC50 (Hepatitis C virus): 0.96 µM
CC50 at 48 h [1]: 1.32 µM
selectivity ratio [2]: 1.37
